Tests used:
[1] = target: T1, Fatty-acid amide hydrolase 1 (Homo sapiens, UniProt O00519); test: Inhibition of Fatty-acid amide hydrolase (FAAH) activity in human lymphoma U937 cell using [3H]AEA as substrate in the 0-25 uM conc; assay type: cell-based, U-937
T1 sequence (O00519 whole entry): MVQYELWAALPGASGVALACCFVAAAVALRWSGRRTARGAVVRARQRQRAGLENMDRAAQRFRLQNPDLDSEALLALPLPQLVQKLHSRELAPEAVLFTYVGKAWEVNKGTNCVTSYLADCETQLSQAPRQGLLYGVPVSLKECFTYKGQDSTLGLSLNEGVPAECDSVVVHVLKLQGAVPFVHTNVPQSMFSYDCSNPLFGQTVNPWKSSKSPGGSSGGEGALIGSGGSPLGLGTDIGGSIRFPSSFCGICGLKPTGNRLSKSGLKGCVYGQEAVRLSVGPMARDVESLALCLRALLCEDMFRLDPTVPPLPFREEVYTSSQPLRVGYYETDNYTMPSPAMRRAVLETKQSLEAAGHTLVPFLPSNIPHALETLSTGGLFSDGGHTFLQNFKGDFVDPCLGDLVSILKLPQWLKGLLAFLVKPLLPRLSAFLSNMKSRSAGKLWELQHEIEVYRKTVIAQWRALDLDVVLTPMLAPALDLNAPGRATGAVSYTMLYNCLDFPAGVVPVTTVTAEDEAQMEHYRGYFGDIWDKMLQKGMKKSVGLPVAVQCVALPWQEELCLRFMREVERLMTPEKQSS

[2] = target: Cannabinoid receptor 1 (Rattus norvegicus, UniProt P20272); test: Displacement of [3H]CP-55940 from rat forebrain membrane which expresses Cannabinoid receptor 1 in the presence of PMSF
[3] = target: Cannabinoid receptor (Rattus norvegicus) (UniProt Q9QZN9+P20272); test: Ratio of Ki at CB1 to Ki at CB2 receptors; assay type: protein assay
[4] = Inhibition of N-arachidonoylethanolamine transporter (AEA) activity in human lymphoma U937 cell using [3H]AEA as substrate in the 0-1000 nM conc.; assay type: cell-based; conditions: u-937
[5] = target: T2, Cannabinoid receptor 2 (Rattus norvegicus, UniProt Q9QZN9); test: Displacement of [3H]CP-55940 from rat forebrain membrane which expresses Cannabinoid receptor 2 in the presence of PMSF
T2 sequence (Q9QZN9 whole entry): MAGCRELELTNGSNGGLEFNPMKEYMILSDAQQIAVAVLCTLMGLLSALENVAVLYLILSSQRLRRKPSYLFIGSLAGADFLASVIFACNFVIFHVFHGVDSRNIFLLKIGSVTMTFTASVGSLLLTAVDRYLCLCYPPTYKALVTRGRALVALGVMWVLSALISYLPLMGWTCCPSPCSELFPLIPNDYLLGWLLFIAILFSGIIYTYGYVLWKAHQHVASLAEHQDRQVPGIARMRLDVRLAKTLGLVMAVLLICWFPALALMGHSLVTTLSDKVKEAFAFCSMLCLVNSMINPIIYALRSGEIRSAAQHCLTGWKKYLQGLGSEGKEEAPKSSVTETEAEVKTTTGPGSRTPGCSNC

Chain of Cannabinoid receptor 1 (P20272 whole entry): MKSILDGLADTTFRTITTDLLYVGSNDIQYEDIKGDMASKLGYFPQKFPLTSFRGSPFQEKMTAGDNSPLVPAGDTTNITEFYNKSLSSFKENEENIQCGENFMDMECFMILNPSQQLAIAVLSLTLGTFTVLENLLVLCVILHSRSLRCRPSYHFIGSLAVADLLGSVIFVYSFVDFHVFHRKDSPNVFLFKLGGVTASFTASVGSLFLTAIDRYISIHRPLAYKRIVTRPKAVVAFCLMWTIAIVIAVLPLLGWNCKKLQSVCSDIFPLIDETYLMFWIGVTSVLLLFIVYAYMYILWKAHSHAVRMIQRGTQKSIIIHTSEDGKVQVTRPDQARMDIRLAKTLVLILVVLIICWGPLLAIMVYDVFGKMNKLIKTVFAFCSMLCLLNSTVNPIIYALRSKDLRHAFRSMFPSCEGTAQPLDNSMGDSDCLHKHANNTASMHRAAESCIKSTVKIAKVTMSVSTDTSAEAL
Chain of Cannabinoid receptor (Rattus norvegicus) (P20272 whole entry, looked up, one chain of several): as the sequence (P20272 whole entry) above

SMILES | Ki [1] | Ki [2] | Ratio [3] | Ki [4] | Ki [5]
CCCCCC(O)/C=C/C=C\C/C=C\C/C=C\CCCC(=O)NCCO (mixture of isomers) | 630 nM | 680 nM | > 0.7 | > 10000 nM | > 1000 nM
CCCCC[C@@H](O)/C=C/C=C\C/C=C\C=C\[C@H](O)CCCC(=O)NCCO | 1260 nM | > 1000 nM | – | > 10000 nM | > 1000 nM
CCCCC[C@H](O)/C=C/C=C\C=C\[C@@H](O)C/C=C\CCCC(=O)NCCO | 690 nM | > 1000 nM | – | > 10000 nM | > 1000 nM
CCCCC/C=C\C/C=C\C/C=C\C/C=C\CCCC(=O)OC(CO)CO [2-ARACHIDONOYLGLYCEROL] | 5000 nM | – | – | 3000 nM | 100 nM
CCCCC[C@H](O)/C=C/C=C\C/C=C\C/C=C\CCCC(=O)OC[C@H](O)CO | 5000 nM | > 1000 nM | – | 7000 nM | > 1000 nM
CCCCC[C@H](O)/C=C/C=C\CCCCCCCC(=O)NCCO | 430 nM | > 1000 nM | > 1.7 | > 10000 nM | 600 nM
CCCCC[C@@H](O)/C=C/C=C\C/C=C\C/C=C\CCCC(=O)NCCO | 630 nM | 600 nM | < 0.6 | > 10000 nM | > 1000 nM
CCCCC/C=C\C[C@@H](O)/C=C/C=C\C/C=C\CCCC(=O)NCCO | 2900 nM | 150 nM | 0.3 | > 10000 nM | 500 nM
CCCCC/C=C\C/C=C\C/C=C\C/C=C\CCCC(=O)OC[C@H](O)CO | 2500 nM | > 1000 nM | – | 10000 nM | > 1000 nM
CCCCC[C@H](O)/C=C/C=C\C/C=C\C/C=C\CCCC(=O)OC[C@@H](O)CO | 6000 nM | > 1000 nM | – | 9000 nM | 550 nM
CCCCC/C=C\C/C=C\C/C=C\C/C=C\CCCC(=O)NCCO [ANANDAMIDE] | > 10000 nM | – | – | > 10000 nM | –
CCCCC/C=C\C=C\[C@@H](O)C/C=C\C/C=C\CCCC(=O)NCCO | 570 nM | > 1000 nM | – | > 10000 nM | > 1000 nM
CCCCC/C=C\C=C\C(O)C/C=C\C/C=C\CCCC(=O)NCCO (mixture of isomers) | 690 nM | > 1000 nM | – | > 10000 nM | > 1000 nM
CCCCC/C=C\C/C=C\C/C=C\C/C=C\CCCC(=O)OC[C@@H](O)CO | 3000 nM | > 1000 nM | – | > 10000 nM | > 1000 nM
